Series [1] in a line: method code SF-AS, from DOI: 10.1248/cpb.28.85. Conditions: pH 2.0.
A short description of series [2]: method code …, from Buur, A., & Bundgaard, H. (1984). Prodrugs of 5-fluorouracil. II. Hydrolysis kinetics, bioactivation, solubility and lipophilicity of N-alkoxycarbonyl derivatives of 5-fluorouracil. Arch. Pharm. …. The note with it: pH 4.0.
Series [3] is described as follows: method code SF-GLC, from DOI: 10.1016/s0022-3565(25)30310-1, PMID: 1181405. The note with it: pH 7.4.
Series [4] can be described thus: method code SF-HPLC, from DOI: 10.1021/je900271h.
Test in series [5]: not given
This is another data set of the same source.

A short description of series [6]: method code SF-AS, from DOI: 10.1016/0006-2952(74)90620-0, PMID: 4822742. Conditions: pH 7.4.
Series [7] in a line: method code SF-AS, from DOI: 10.1016/s0045-6535(00)00181-8, PMID: 11272912.
Test in series [8]: not given
The source holds these as a separate data set.

A short description of series [9]: method code SF-RC,FL, from DOI: 10.1016/0006-2952(81)90006-x, PMID: 6456004.
A short description of series [10]: method code SF-HPLC, from PMID: 3268116. The note with it: pH 7.0.
A short description of series [11]: method code SF-AS, from DOI: 10.1093/ajhp/38.9.1308, PMID: 7282713.
Series [12] is described as follows: method code SF-AS, from DOI: 10.1021/es00082a014. The note with it: pH 7.0.
The nature of series [13]: method code SF-LC/MS, from DOI: 10.1002/rcm.3594, PMID: 18543375. The note with it: pH 7.4.
A short description of series [14]: method code SF-AS, from Halmekoski, J.; Hannikainen, H. (1964). Rm values of hydroxy-substituted benzoic acids and partition coefficients of the acids between water and aliphatic alcohols. Suomen Kemist. B, 37, 221-226.
Series [15] can be described thus: method code SF-CR, from DOI: 10.1042/bj1780443, PMID: 109087. Conditions: pH 7.4.
Series [16] can be described thus: method code SF, from DOI: 10.1080/09553009014551091, PMID: 1970998. The note with it: pH 7.4.
Series [17] can be described thus: method code SF-RC, from DOI: 10.1038/sj.bjc.6601862, PMID: 15150578.
Series [18] in a line: method code SF-AS, from DOI: 10.1016/s0022-3565(25)24763-2, PMID: 2019981. Conditions: pH 7.4.
Series [19] is described as follows: method code SF-GLC, from DOI: 10.1039/an9709500763, PMID: 5449617.
A short description of series [20]: method code SF-HPLC, from DOI: 10.1002/ps.2780370106. Conditions: pH 0.0.
The nature of series [21]: method code SF-AS, from DOI: 10.1007/s0012800114, PMID: 10885996.
Series [22] is described as follows: method code SF-GLC, from DOI: 10.1016/0378-4274(82)90116-3, PMID: 7090003.
Test in series [23]: not given
This is another data set of the same source.

Test in series [24]: not given
This is another data set of the same source.

Series [25] can be described thus: method code SF-GLC, from DOI: 10.1271/bbb1961.46.2755.
Series [26] is described as follows: method code SF-HPLC, from DOI: 10.1002/jps.2600750520, PMID: 3735094. The note with it: pH 4.0.
The nature of series [27]: method code SF-AS, from DOI: 10.1016/j.ejmech.2004.01.002, PMID: 15072846. The note with it: pH 7.4.
Series [28] is described as follows: method code SF-AS, from DOI: 10.1111/j.2042-7158.1981.tb11766.x. Conditions: pH 1.0.
The nature of series [29]: method code SF-AS, from DOI: 10.2116/analsci.8.761. The note with it: pH 6.0.
Series [30] can be described thus: method code SF-HPLC, from Hairsine, P. (1997). Direct measurement of partition coefficient by shake flask technique and gradient elution HPLC. Lab. Practice, 38(11)73-75.
Series [31] can be described thus: method code SF-AS, from DOI: 10.1148/radiology.194.3.7862981, PMID: 7862981.
A short description of series [32]: method code SF-AS,RC, from DOI: 10.2307/3575891, PMID: 7122830.
Series [33] is described as follows: method code SF-HPLC, from DOI: 10.1021/jf0623440, PMID: 17263479.
Series [34] in a line: method code SF-HPLC, from PMID: 11745753. The note with it: pH 7.4.
Test in series [35]: not given
The source holds these as a separate data set.

Test in series [36]: not given
The source holds these as a separate data set.

Series [37] in a line: method code SF-AS, from DOI: 10.1016/j.jhazmat.2007.11.074, PMID: 18180104.
Test in series [38]: not given
This is another data set of the same source.

Series [39] is described as follows: method code SF-AS, from DOI: 10.1248/cpb.26.2824.
Test in series [40]: not given
The source holds these as a separate data set.

A short description of series [41]: method code SF, from DOI: 10.1021/jm020367+, PMID: 12502371.
Series [42] is described as follows: method code SF-HPLC, from DOI: 10.1016/s0021-9673(01)81976-2, PMID: 4066822.
The nature of series [43]: method code SF-AS, from DOI: 10.1016/0378-5173(80)90117-9.
Test in series [44]: not given
The source holds these as a separate data set.

Series [45] is described as follows: method code SF-RC, from Audran, M.; Chanal, J.; Marignan, R.; Cousse, H. (1984). Correlations between structure and pharmacokinetic parameters in a series of cresotinamides. International Journal of Pharmaceutics, …. Conditions: pH 1.0.

Drawing on the SangsterLogP compilation, this text covers logD and logP for 46 molecules.

Broadly, the logD is the decadic logarithm of the distribution of all forms, ionised or not, between an organic phase and buffer at a given pH. A word on the logP: it is the decadic logarithm of the partition coefficient of the neutral form, usually between octanol and water.

Each structure is given as a SMILES string.

Consider `O=C(O)COc1ccccc1`, for which the logD in [1] came to 1.35.
As to `CCOC(=O)n1c(=O)[nH]cc(F)c1=O`, the logD in series [2] was 0.11.
`O=C(O)c1ccc([N+](=O)[O-])cc1` displayed a logP of 1.9.
In series [3], `CCCCCOC(=O)NC` returned a pH-dependent lipophilicity (logD) of 1.96.
With `COc1cc(C(=O)O)ccc1O`, the lipophilicity (logP) in series [4] came to 1.46.
`Cc1ncc(COP(=O)(O)O)c(C=O)c1O` gave a logP in series [5] of 0.37.
Regarding `CC1=NS(=O)(=O)c2cc(Cl)ccc2N1`, the log distribution coefficient (logD) in series [6] worked out at 1.08.
As to `O=Cc1cc(Br)ccc1O`, the log partition coefficient (logP) in series [7] was found to be 2.5.
For the molecule `C1=CC=CCC=C1`, the log partition coefficient (logP) in series [8] is 2.63.
Turning to `NCCc1ccc(O)c(O)c1`, in [9], the lipophilicity (logP) was -0.97.
`c1ccc2[nH]ccc2c1` yielded a log distribution coefficient (logD) in [10] of 2.27.
On to `NNc1nncc2ccccc12`, for which the logP in [11] is 1.
In series [12], `Cc1ccc(N)cc1C` gave a pH-dependent lipophilicity (logD) of 1.86.
For `c1ccc2[nH]cnc2c1`, the logD in series [13] was determined as 1.53.
`O=C(O)c1cc(O)ccc1O` had a logP in [14] of 1.12.
The molecule `CCc1ccc(O)cc1` came in with a pH-dependent lipophilicity (logD) in series [15] of 2.4.
Turning to `O=C(NCCO)C(F)(F)Cn1ccnc1[N+](=O)[O-]`, in [16], the log distribution coefficient (logD) is -0.52.
With `O=C(Cn1ccnc1[N+](=O)[O-])NCCF`, the logP in [17] was -0.8.
For `CCc1occc(=O)c1O`, the logD in series [18] was determined as 0.6.
Consider `COP(=O)(OC)Oc1ccc([N+](=O)[O-])cc1`, for which the log partition coefficient (logP) in series [19] was 1.33.
Molecule `NC(=O)Nc1ccc(C(=O)O)cc1` returned a log distribution coefficient (logD) in series [20] of 0.73.
As for `CS(=O)(=O)c1ccc(C=O)cc1`, the logP in series [21] came out at 0.35.
On to `C=C(C)C(=O)OC(C)C`, for which the logP in series [22] was found to be 2.25.
Consider `COC(=O)c1nc(Cl)c(Cl)c(N)c1Cl`, for which the logP in series [23] turned out to be 2.3.
For the molecule `S=C=Nc1ccc(Br)cc1`, the logP in series [24] was 4.03.
The molecule `CCCS(=O)(=O)CCC` came in with a log partition coefficient (logP) in series [25] of 0.39.
In [26], `O=C(OCCCl)n1cc(F)c(=O)[nH]c1=O` registered a pH-dependent lipophilicity (logD) of 0.02.
In the case of `NC(=O)N/N=C/C=C/c1ccc([N+](=O)[O-])o1`, in [27], the pH-dependent lipophilicity (logD) worked out at 0.97.
Consider `O=C(O)c1ccc(O)cc1`, for which the logD in series [28] came out at 1.56.
In series [29], `OCc1ccc(O)cc1` displayed a logD of 0.48.
Take `COc1ccccc1C(=O)O`: the logP in series [30] amounted to 1.62.
With `O=[N+]([O-])c1nccn1C[C@H](O)[C@H](O)CF`, in series [31], the logP is -0.77.
For the molecule `COCC(O)Cn1cc(Br)nc1[N+](=O)[O-]` (stereo unspecified), the logP in series [32] worked out at 0.46.
In turn, `O=[N+]([O-])/C=C1/NCCN1Cc1cnc(Cl)s1` yielded a logP in series [33] of 0.03.
In series [34], `COC(=O)c1ccc(N)cc1` registered a pH-dependent lipophilicity (logD) of 1.48.
Take `Cc1ccc([N+](=O)[O-])cc1N`: the log partition coefficient (logP) in series [35] is 1.87.
In series [36], `COP(=S)(OC)Oc1cc(Cl)c(Cl)cc1Cl` yielded a logP of 4.67.
As for `CNc1ccc([N+](=O)[O-])cc1`, the lipophilicity (logP) in series [37] came to 1.98.
The molecule `CC(C)OC(C)(C)C` had a logP in [38] of 2.14.
Take `Cc1ccc(O)c(C(=O)O)c1`: the logP in series [39] was 2.78.
For `COc1ccc([N+](=O)[O-])c(C)c1`, the logP in series [40] amounted to 2.38.
In series [41], `Nc1n[n+]([O-])c2cc(Cl)ccc2[n+]1[O-]` gave a lipophilicity (logP) of 0.46.
`COC1=C(OC)C(=O)C=CC1=O`: in series [42], the logP was determined as 0.34.
With `CCOc1ccc(O)cc1`, in series [43], the lipophilicity (logP) is 1.95.
On to `CCCCCCCBr`, for which the logP in series [44] turned out to be 4.44.
For `Cc1cccc(C(N)=O)c1O`, the logD in series [45] came out at 2.12.
